Source: patent US20220362245A1, “COMPOUNDS FOR INHIBITING FGFR4” (Terns Pharmaceuticals, Inc., priority 2019, published 2022)

Legend:
[1] = biological target: FGFR1 (Homo sapiens, UniProt P11362); test: FGFR inhibition assay (33P-ATP radiometric kinase assay), FGFR1; type: biochemical; conditions: 20 μM KKKSPGEYVNIEFG peptide substrate, 10 μM final ATP, 2 hours at room temperature
Description: (§1) The potency of test compounds in inhibiting FGFR1 and FGFR4 was determined. 20 μM of [KKKSPGEYVNIEFG] peptide substrate was added to the reaction buffer (20 mM 4-(2-hydroxyethyl)-1-piperazineethanesulfonic acid (HEPES) (pH 7.5), 10 mM MgCl2, 1 mM egtazic acid (EGTA), 0.02% BRIJ®-35, 0.02 mg/ml bovine serum albumin (BSA), 0.1 mM Na3VO4, 2 mM dithiothreitol (DTT), and 1% DMSO) for FGFR1. 0.2 mg/mL of poly[Glu:Tyr] (4:1) peptide substrate was added to the reaction buffer (20 mM 4-(2-hydroxyethyl)-1-piperazineethanesulfonic acid (HEPES) (pH 7.5), 10 mM MgC12, 1 mM egtazic acid (EGTA), 0.02% BRIJ®-35, 0.02 mg/ml bovine serum albumin (BSA), 0.1 mM Na3VO4, 2 mM dithiothreitol (DTT), and 1% DMSO) for FGFR4. Next, FGFR1 or FGFR4 was added to the substrate solution and gently mixed.
(§2) Test compounds were dissolved in 100% dimethyl sulphoxide (DMSO) and then three-fold serially diluted in DMSO using an epMotion® 5070 robotic pipettor. The diluted test compounds, from 0.00001 M to 5.08053E-10 M, were added to corresponding substrate solutions, and the resulting substrate/compound solutions were incubated for 20 min at room temperature. Radioactive ATP (^33P-ATP) was added to each substrate/compound solution to initiate the kinase activity of FGFR1 or FGFR4 and were incubated for 2 hours at room temperature (10 μM final [ATP]). Reactions were spotted onto P81 ion exchange paper, washed to remove excess radiolabeled ATP and kinase activity determined by quantification of radioactive spots.
(§3) The half maximal inhibitory concentration (IC50) values for FGFR1 and FGFR4 were determined for each compound assayed and are shown in Table 2.

[2] = biological target: FGFR4 (Homo sapiens, UniProt P22455); test: FGFR inhibition assay (33P-ATP radiometric kinase assay), FGFR4; type: biochemical; conditions: for IC50: 0.2 mg/mL poly[Glu:Tyr] (4:1) substrate, 10 μM final ATP, 2 hours at room temperature; for inhibition of FGFR4 compared with FGFR1 (selectivity): concentration inhibiting FGFR4 versus concentration inhibiting FGFR1, from Table 2 IC50 values
Description: as §1, §2, §3

Sequence of FGFR4 (P22455 22-802): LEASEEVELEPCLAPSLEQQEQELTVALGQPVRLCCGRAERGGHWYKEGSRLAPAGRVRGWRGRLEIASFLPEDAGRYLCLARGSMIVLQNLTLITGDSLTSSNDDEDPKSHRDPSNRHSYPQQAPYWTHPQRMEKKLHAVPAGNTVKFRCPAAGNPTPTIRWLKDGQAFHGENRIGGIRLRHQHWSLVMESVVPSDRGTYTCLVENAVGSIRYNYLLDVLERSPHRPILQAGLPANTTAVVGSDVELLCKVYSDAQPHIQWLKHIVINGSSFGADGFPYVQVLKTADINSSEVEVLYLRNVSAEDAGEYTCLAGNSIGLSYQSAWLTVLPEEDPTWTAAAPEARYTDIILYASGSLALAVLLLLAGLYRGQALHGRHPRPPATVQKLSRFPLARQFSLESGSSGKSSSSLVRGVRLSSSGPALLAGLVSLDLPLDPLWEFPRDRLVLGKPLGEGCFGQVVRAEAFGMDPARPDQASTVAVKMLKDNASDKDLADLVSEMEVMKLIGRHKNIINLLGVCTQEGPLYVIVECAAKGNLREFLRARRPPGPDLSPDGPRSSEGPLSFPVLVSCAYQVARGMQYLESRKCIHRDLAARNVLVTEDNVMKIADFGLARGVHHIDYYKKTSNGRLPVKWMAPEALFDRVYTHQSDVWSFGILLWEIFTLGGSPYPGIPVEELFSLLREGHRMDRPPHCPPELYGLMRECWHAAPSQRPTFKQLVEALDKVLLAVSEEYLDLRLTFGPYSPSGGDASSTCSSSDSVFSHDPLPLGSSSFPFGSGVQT
Sequence of FGFR1 (P11362 22-822): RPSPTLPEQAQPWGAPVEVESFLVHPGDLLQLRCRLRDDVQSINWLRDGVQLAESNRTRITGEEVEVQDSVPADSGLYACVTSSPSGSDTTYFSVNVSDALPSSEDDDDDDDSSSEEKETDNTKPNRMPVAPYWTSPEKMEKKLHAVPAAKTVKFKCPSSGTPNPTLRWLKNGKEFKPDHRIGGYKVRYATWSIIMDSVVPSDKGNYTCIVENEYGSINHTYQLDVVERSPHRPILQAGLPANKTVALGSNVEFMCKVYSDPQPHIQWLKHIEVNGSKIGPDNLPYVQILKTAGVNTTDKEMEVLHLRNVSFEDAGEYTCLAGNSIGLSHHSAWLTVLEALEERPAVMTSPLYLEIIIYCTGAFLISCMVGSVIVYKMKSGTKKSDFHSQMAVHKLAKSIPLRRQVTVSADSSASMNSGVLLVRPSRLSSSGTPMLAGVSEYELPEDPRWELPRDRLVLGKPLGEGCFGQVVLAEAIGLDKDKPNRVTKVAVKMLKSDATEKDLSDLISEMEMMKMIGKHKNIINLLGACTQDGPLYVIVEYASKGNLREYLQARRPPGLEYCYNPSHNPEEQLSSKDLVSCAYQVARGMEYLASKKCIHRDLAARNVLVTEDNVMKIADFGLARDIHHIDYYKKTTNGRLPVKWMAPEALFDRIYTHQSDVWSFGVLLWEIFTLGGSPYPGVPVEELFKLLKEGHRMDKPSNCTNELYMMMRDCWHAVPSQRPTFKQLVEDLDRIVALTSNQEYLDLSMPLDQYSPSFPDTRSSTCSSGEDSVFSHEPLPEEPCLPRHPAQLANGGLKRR

IC50 [1] | IC50 [2] | inhibition of FGFR4 compared with FGFR1 (selectivity) [2] | SMILES
5600 nM | 0.8 nM | dramatically lower concentration | COc1cc(OC)c(F)c(COc2cnc(NC(=O)N3CCCc4ccc(C=O)nc43)nc2)c1F [Example 1, N-(5-((2,6-difluoro-3,5-dimethoxybenzyl)oxy)pyrimidin-2-yl)-7-formyl-3,4-dihydro-1,8-naphthyridine-1(2H)-carboxamide]
1000 nM | 0.9 nM |  | COc1cc(OC)c(F)c(/C=C/c2cnc(NC(=O)N3CCCc4ccc(C=O)nc43)nc2)c1F [Example 7, (E)-N-(5-(2,6-difluoro-3,5-dimethoxystyryl)pyrimidin-2-yl)-7-formyl-3,4-dihydro-1,8-naphthyridine-1(2H)-carboxamide]
330 nM | 2.5 nM |  | COc1cc(OC)c(F)c(C#Cc2cnc(NC(=O)N3CCCc4ccc(C=O)nc43)nc2)c1F [Example 8, N-(5-((2,6-difluoro-3,5-dimethoxyphenyl)ethynyl)pyrimidin-2-yl)-7-formyl-3,4-dihydro-1,8-naphthyridine-1(211)-carboxamide]
63 nM | 1 nM |  | COc1cc(OC)c(F)c(CCc2cnc(NC(=O)N3CCCc4ccc(C=O)nc43)nc2)c1F [Example 6, N-(5-(2,6-difluoro-3,5-dimethoxyphenethyl)pyrimidin-2-yl)-7-formyl-3,4-dihydro-1,8-naphthyridine-1(2H)-carboxamide]
130 nM | 1.9 nM |  | COc1cc(OC)c(F)c(COc2cnc(NC(=O)N3CCCc4c(C)cc(C=O)nc43)nc2)c1F [Example 5, N-(5-((2,6-difluoro-3,5-dimethoxybenzyl)oxy)pyrimidin-2-yl)-7-formyl-5-methyl-3,4-dihydro-1,8-naphthyridine-1(2H)-carboxamide]
140 nM | < 0.5 nM |  | COc1cc(OC)c(F)c(COc2cnc(NC(=O)N3CCCc4cc(CN5CCN(C)CC5=O)c(C=O)nc43)nc2)c1F [Example 3, N-(5-((2,6-difluoro-3,5-dimethoxybenzyl)oxy)pyrimidin-2-yl)-7-formyl-6-((4-methyl-2-oxopiperazin-1-yl)methyl)-3,4-dihydro-1,8-naphthyridine-1(2H)-carboxamide]
> 10000 nM | 5.9 nM | dramatically lower concentration | COc1cc(OC)c(F)c(COc2ccc(NC(=O)N3CCCc4ccc(C=O)nc43)nc2)c1F [Example 2, N-(5-((2,6-difluoro-3,5-dimethoxybenzyl)oxy)pyridin-2-yl)-7-formyl-3,4-dihydro-1,8-naphthyridine-1(2H)-carboxamide]
